Measurements as given in PubChem BioAssay (NCI).
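Each compound was tested at five concentrations against cells in 96-well plates for 48 hours. Definition used: TGI = concentration required for complete inhibition of growth.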

Legend:
Assay in all cases: inhibition of tumour cell growth, NCI panel, 48 h
[1] = test system: SF-539 CNS
[2] = test system: ACHN renal
[3] = test system: UACC-62 melanoma
[4] = test system: HCT-116 colon
[5] = test system: SN12C renal
[6] = test system: NCI-H522 lung
[7] = test system: KM12 colon
[8] = test system: OVCAR-8 ovarian
[9] = test system: HL-60(TB) leukemia
[10] = test system: SK-OV-3 ovarian

Structure (SMILES) | TGI [1] [µM] | TGI [2] [µM] | TGI [3] [µM] | TGI [4] [µM] | TGI [5] [µM] | TGI [6] [µM] | TGI [7] [µM] | TGI [8] [µM] | TGI [9] [µM] | TGI [10] [µM]
CC1(C)CC(=O)C(=CN2C(=O)CNC2=S)C(=O)C1 | > 100 | > 100 | > 100 | > 100 | > 100 | > 100 | > 100 | > 100 | > 100 | > 100
O=C(NC/C=C/Br)NC1CCNc2ccccc21 (configuration not stated) | 45.8 | > 100 | 58.7 | > 100 | > 100 | > 100 | > 100 | > 100 | > 100 | > 100
CC(=O)[C@H]1CCC2[C@@H]3CC=C4C(O)C(OS(=O)(=O)O)CC[C@]4(C)C3CC[C@@]21C (some centres not stated) | > 100 | – | > 100 | > 100 | > 100 | > 100 | > 100 | > 100 | > 31.6 | > 100
C=C(C(=O)OC)[C@H]1CC/C(C)=C/CC/C(C)=C/CC[C@@]2(C)O[C@@H]2C1 | 32.2 | 34.5 | 26 | 28.7 | 31.2 | 38.5 | 37.6 | 31.4 | 30.9 | > 100
COc1ccc(C2NC(=O)Nc3c2c(=O)oc2c3ccc3ccccc32)cc1 (configuration not stated) | > 100 | > 100 | > 100 | > 100 | > 100 | > 100 | > 100 | > 100 | > 100 | > 100
CCOC(=O)C[n+]1ccc2c([nH]c3cc(OC)ccc32)c1C | > 100 | – | > 100 | > 100 | > 100 | > 100 | > 100 | > 100 | > 100 | > 100
O=C(NCCCCNCCCNC(=O)OCc1ccccc1)OCc1ccccc1 | 43.1 | > 100 | 37.1 | 70 | > 100 | 39.2 | 98.5 | 67.1 | 60.4 | > 100
CC1(C)CC2(C)OC(=N)C1(C#N)C2(C#N)C#N (configuration not stated) | 24.5 | 20.3 | 24.9 | 20.1 | 21.7 | 8.38 | 29.4 | 46.8 | 15.6 | > 100
COC(=O)C1=C(C)NC2(C)OC(C)(O)C(C(C)=O)C12C(C)=O (configuration not stated) | 57.5 | > 100 | > 100 | > 100 | > 100 | > 100 | > 100 | > 100 | > 100 | 85.8
c1ccc(CNc2ncnc3n[nH]nc23)cc1 | > 100 | > 100 | > 100 | > 100 | > 100 | > 100 | > 100 | > 100 | > 100 | > 100
O=S(=O)(O)c1ccc(Nc2ccnc3cc(Cl)ccc23)cc1 | > 100 | > 100 | > 100 | > 100 | > 100 | > 100 | > 100 | > 100 | > 100 | > 100
COc1cccc(C2CC(=O)c3cccn32)c1 (configuration not stated) | > 100 | > 100 | > 100 | > 100 | > 100 | > 100 | > 100 | > 100 | 96 | > 100
COc1cc2c(cc1O)CC[C@@H]1C2CC[C@@]2(C)C1CC[C@@H]2O (some centres not stated) | 4.2 | > 100 | > 100 | > 81 | > 82 | 6.87 | 61.8 | 39.4 | 8.18 | > 100
C[C@@H]1OCC(O)C([C@H]2OC(c3ccccc3)=N[C@H]2CO)O1 (some centres not stated) | > 100 | > 100 | > 100 | > 100 | > 100 | > 100 | > 100 | > 100 | > 100 | > 100
C[n+]1c(-c2ccc(/C=N/Nc3ccnc(N/N=C/c4ccc(-c5cn6ccccc6[n+]5C)cc4)n3)cc2)cn2ccccc21 | 40.1 | 54.4 | – | > 100 | > 100 | > 100 | > 100 | > 100 | 65.7 | > 100
COc1cc(-c2[o+]c3cc(O)cc(OC4OC(CO)C(O)C(O)C4O)c3cc2OC2OC(CO)C(O)C(O)C2O)cc(OC)c1O (configuration not stated) | > 100 | > 100 | > 100 | > 100 | > 100 | > 100 | > 100 | > 100 | > 100 | > 100
C=C1C(=O)O[C@H]2[C@H]([C@H](C)CCCC(C)=O)O[C@H]([C@@]3(C)CCC(=O)O3)C[C@@H]12 | > 100 | > 100 | > 100 | 85.5 | > 100 | 64.8 | > 100 | > 100 | > 100 | > 100
COC1=CC(=O)c2c(cc(COP(=O)(N(C)CCBr)N(C)CCBr)n2C)C1=O | 0.339 | 0.492 | 2.26 | 4.85 | 3.76 | 2.15 | 24.1 | 3.98 | > 100 | 8.3
CSc1ccccc1P(CCP(c1ccccc1SC)c1ccccc1SC)c1ccccc1SC | > 79.1 | > 100 | > 100 | > 100 | > 100 | > 100 | > 100 | > 100 | 16.3 | > 55.4
Cn1c(=O)c2sc3cc4c(cc3c2c2ccccc21)sc1c(=O)n(C)c2ccccc2c14 | > 100 | 54.8 | > 100 | > 100 | > 100 | > 100 | > 100 | > 100 | > 100 | > 100
Cc1nnc(CC#N)n1NC(=O)CC#N | > 100 | > 100 | > 100 | > 100 | > 100 | > 100 | > 100 | > 100 | > 100 | > 100
